Like-named read-outs stand apart in the source and are kept apart here.
Experiments:
HSA [1] = molecular target: T1, HSA (Homo sapiens, UniProt P02768)
Experimental: (§1) The HSA binding affinity was measured using ultrafiltration analysis.

[2] = Relaxability (r1 and r2) under 3.0T and 9.4T magnetic fields in water and HSA; type: physicochemical
liver = experiment: 3.0T MR imaging of liver and gallbladder in normal mice versus commercial contrast agents; type: in vivo; conditions: 5min to 120min after injection, FIG. 9
HSA [3] = molecular target: T1, HSA; experiment: HSA binding affinity by ultrafiltration analysis
Experimental: as §1

[4] = 3.0-T, Water; value marked with footnote a (footnote not given); cited from earlier work
[5] = value marked with footnote a (footnote not given); cited from earlier work
C6 glioma = experiment: MR imaging of brain cancer model; type: in vivo; conditions: 0.1 mmol/kg Gd-DO3A-butrol versus 0.05 mmol/kg Gd-PCTA-Ach; FIG. 8A
Experimental: After a brain cancer model was prepared using C6 glioma which is a brain cancer cell, 0.1mmol/kg of Gd-PCTA-Ach 0.1mmol/kg, Gd-PCTA-Ach 0.05mmol/kg, and Gd-DO3A-butrol were injected thereto, respectively, to obtain MR images (FIG. 8A) and CNR graphs (FIG. 8B) according to the MR images, and the results are shown in FIG. 8.

T1 sequence (P02768 25-609): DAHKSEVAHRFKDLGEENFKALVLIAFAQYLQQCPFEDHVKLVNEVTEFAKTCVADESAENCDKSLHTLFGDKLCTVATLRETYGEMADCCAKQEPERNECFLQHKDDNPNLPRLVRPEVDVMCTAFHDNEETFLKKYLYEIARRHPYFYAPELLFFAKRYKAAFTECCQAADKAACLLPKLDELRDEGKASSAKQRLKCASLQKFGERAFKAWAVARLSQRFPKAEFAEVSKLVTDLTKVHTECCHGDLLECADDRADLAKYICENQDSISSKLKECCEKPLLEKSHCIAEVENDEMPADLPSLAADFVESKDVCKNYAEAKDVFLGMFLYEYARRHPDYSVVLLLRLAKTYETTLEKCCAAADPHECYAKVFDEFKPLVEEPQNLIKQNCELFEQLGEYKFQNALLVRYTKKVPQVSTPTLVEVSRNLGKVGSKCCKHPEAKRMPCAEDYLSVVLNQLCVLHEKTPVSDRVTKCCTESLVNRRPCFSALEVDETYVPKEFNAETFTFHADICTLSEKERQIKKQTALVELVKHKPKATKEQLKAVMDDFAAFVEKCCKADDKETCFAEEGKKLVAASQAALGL
Excerpt for Hydrophilicity (log P): The Log P value is a value for evaluating the hydrophilicity. When the P value is smaller than 1, the Log P value becomes negative to indicate the hydrophilicity. When the P value is greater than 1, the Log P value becomes positive to indicate lipophilicity.

Molecule	HSA bindin g affinity (%) (HSA [1])	r1 ([2]; 3.0-T, HSA) [mM⁻¹ s⁻¹]	r2 ([2]; 3.0-T, HSA) [mM⁻¹ s⁻¹]	r1 ([2]; 3.0-T, Water) [mM⁻¹ s⁻¹]	r2 ([2]; 3.0-T, Water) [mM⁻¹ s⁻¹]	r1 ([2]; 9.4-T, Water) [mM⁻¹ s⁻¹]	r2 ([2]; 9.4-T, Water) [mM⁻¹ s⁻¹]	gallbladder contrast enhancement over time (liver)	log P (log Co/Cw) (Hydrophilicity (log P))	HSA bindin g affinity (%) (HSA [3])	r1 [4] [mM⁻¹ s⁻¹]	log P (log Co/Cw) [5]	brightness in MR image (C6 glioma)
O=C([O-])CN(CCN(CC(=O)[O-])CC(=O)[O-])CCN(CC(=O)[O-])C(COCc1ccccc1)C(=O)[O-].[Gd+3] (stereo not shown) [Gd-BOPTA]	15.0	5.8 ± 0.2	9.0 ± 0.3	5.1 ± 0.02	6.8 ± 0.4	6.1 ± 1.1	8.1 ± 1.4	initially enhanced, and then was observed to decrease slowly					
CCOc1ccc(C[C@@H](CN(CCN(CC(=O)[O-])CC(=O)[O-])CC(=O)[O-])N(CC(=O)[O-])CC(=O)[O-])cc1.[Gd+3].[Na+].[Na+] [Gd-EOB-DTPA]		7.7 ± 0.1	11.1 ± 0.04	6.5 ± 0.04	7.3 ± 0.4	7.4 ± 1.4	10.7 ± 1.9	initially enhanced, and then was observed to decrease slowly	-2.9	8.9			
O=C(CCC(C(=O)[O-])N1CCN(C(CCC(=O)NCC(O)CO)C(=O)[O-])Cc2cccc(n2)CN(C(CCC(=O)NCC(O)CO)C(=O)[O-])CC1)NCC(O)CO.[Gd+3] (stereo not shown) [Gadopiclenol]											11.3	-4.2	
Gd-DO3A-butrol		4.3 ± 0.1	6.5 ± 0.1	4.3 ± 0.2	5.5 ± 0.02	4.9 ± 0.9	6.4 ± 1.1		-3.1	3.4			comparable

Reference: patent EP4582432A1, “NOVEL COMPOUND AND MRI CONTRAST AGENT COMPRISING SAME” (Theranocure Co., Ltd., priority 2022, dated 2024)
